Measurements: PubChem BioAssay AID248 (DTP/NCI, 2004)
Several values for one entry are separate records, joined by “and”; a condition that tells them apart may be missing. Identical values can stand only once. Toxic doses and inconclusive results are not listed. Cut-off read from the data, not from the text of the source: active = T/C of 150% or more; inactive = T/C below 125%.

System: L1210 leukemia ip in BDF1 mice, survival T/C
Experiment: NCI In Vivo Anticancer Drug Screen. Data for tumor model L1210 Leukemia (intraperitoneal) in B6D2F1 (BDF1) mice
Conditions: endpoint: mean survival time, higher = longer survival
Procedure, shortened: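 Tumor was transplanted into mice, which were then dosed with test compound or vehicle alone. Survival was recorded for each group, and the treated figure was expressed relative to the control figure.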

[1] = dose: 100.0 mg/kg/injection, schedule: Q04DX003 (ip), vehicle: Klucel (hydroxypropylcellulose) (HPC)
[2] = dose: 200.0 mg/kg/injection, schedule: Q04DX003 (ip), vehicle: Klucel (hydroxypropylcellulose) (HPC)
[3] = dose: 400.0 mg/kg/injection, schedule: Q04DX003 (ip), vehicle: Klucel (hydroxypropylcellulose) (HPC)
[4] = dose: 100.0 mg/kg/injection, schedule: Q01DX009 (ip), vehicle: saline with Tween-80
[5] = dose: 100.0 mg/kg/injection, schedule: Q04DX003 (ip), vehicle: saline with Tween-80
[6] = dose: 200.0 mg/kg/injection, schedule: Q01DX009 (ip), vehicle: saline with Tween-80
[7] = dose: 200.0 mg/kg/injection, schedule: Q04DX003 (ip), vehicle: saline with Tween-80
[8] = dose: 400.0 mg/kg/injection, schedule: Q01DX009 (ip), vehicle: saline with Tween-80
[9] = dose: 400.0 mg/kg/injection, schedule: Q04DX003 (ip), vehicle: saline with Tween-80
[10] = dose: 100.0 mg/kg/injection, schedule: Q01DX001 (ip), vehicle: saline
[11] = dose: 200.0 mg/kg/injection, schedule: Q01DX001 (ip), vehicle: saline
[12] = dose: 400.0 mg/kg/injection, schedule: Q01DX001 (ip), vehicle: saline
[13] = dose: 100.0 mg/kg/injection, schedule: Q01DX001 (ip), vehicle: carboxymethylcellulose (CMC)
[14] = dose: 400.0 mg/kg/injection, schedule: Q01DX001 (ip), vehicle: carboxymethylcellulose (CMC)
[15] = dose: 100.0 mg/kg/injection, schedule: Q01DX009 (ip), vehicle: Klucel (hydroxypropylcellulose) (HPC)
[16] = dose: 200.0 mg/kg/injection, schedule: Q01DX009 (ip), vehicle: Klucel (hydroxypropylcellulose) (HPC)
[17] = dose: 400.0 mg/kg/injection, schedule: Q01DX009 (ip), vehicle: Klucel (hydroxypropylcellulose) (HPC)

Measured: T/C

CCCCCCN1CC1
inactive: dose: 15.0 mg/kg/injection, schedule: Q01DX001 (ip), vehicle: saline 102 % of control | dose: 30.0 mg/kg/injection, schedule: Q01DX001 (ip), vehicle: saline 98 % of control

O=C(O)c1c2ccc(=O)cc-2oc2cc(O)ccc12
inactive: [1] 92 % of control | [2] 92 % of control | [3] 89 % of control

COc1ccc(CNCCNCc2ccc(OC)c(OC)c2)cc1OC
inactive: [4] 97 % of control | [5] 100 % of control | [6] 102 % of control | [7] 93 % of control | [8] 106 % of control | [9] 105 % of control

CC(=O)Nc1nc2ncc(CCN(C)c3ccc(C(=O)O)cc3)nc2c(=O)[nH]1
inactive: dose: 75.0 mg/kg/injection, schedule: Q01DX001 (ip), vehicle: saline 102 % of control | dose: 150.0 mg/kg/injection, schedule: Q01DX001 (ip), vehicle: saline 101 % of control

CCCCCCCC(Cc1ccccc1)C(N)=O (centres undefined)
inactive: [10] 97 % of control | [11] 92 % of control | [12] 92 % of control

O=C1CC(=O)NC(=S)N1
inactive: [5] 101 % of control | [7] 93 % of control | [9] 93 % of control

CCCCNC(C)(C)CO
inactive: dose: 12.5 mg/kg/injection, schedule: Q01DX009 (ip), vehicle: saline 106 % of control | dose: 12.5 mg/kg/injection, schedule: Q04DX003 (ip), vehicle: saline 100 % of control | dose: 25.0 mg/kg/injection, schedule: Q01DX009 (ip), vehicle: saline 112 % of control | dose: 25.0 mg/kg/injection, schedule: Q04DX003 (ip), vehicle: saline 97 % of control | dose: 50.0 mg/kg/injection, schedule: Q01DX009 (ip), vehicle: saline 109 % of control | dose: 50.0 mg/kg/injection, schedule: Q04DX003 (ip), vehicle: saline 102 % of control | dose: 75.0 mg/kg/injection, schedule: Q01DX009 (ip), vehicle: saline 105 % of control

Cc1ccc(Nc2nc(N)nc(N)c2C=O)cc1
inactive: dose: 50.0 mg/kg/injection, schedule: Q01DX001 (ip), vehicle: alcohol 89 % of control | dose: 100.0 mg/kg/injection, schedule: Q01DX001 (ip), vehicle: alcohol 86 % of control | dose: 200.0 mg/kg/injection, schedule: Q01DX001 (ip), vehicle: alcohol 102 % of control | dose: 400.0 mg/kg/injection, schedule: Q01DX001 (ip), vehicle: alcohol 86 % of control

COc1cc(/C=N/NC(=O)N/N=C/c2cc(OC)c(OC)c(OC)c2)cc(OC)c1OC
inactive: [1] 105 % of control | [2] 105 % of control | [3] 108 % of control

CCCCCC1OC1C/C=C/CCCCCCCC(=O)OCC(COC(=O)CCCCCCC/C=C/CC1OC1CCCCC)OC(=O)CCCCCCC/C=C/CC1OC1CCCCC (centres undefined)
inactive: [10] 109 % of control | [11] 95 % of control | [12] 97 % of control

CC(C)C(C)/C=C\C(C)C1CCC2C3=CCC4CC(=O)CCC4(C)C3CCC21C (centres undefined)
inactive: dose: 50.0 mg/kg/injection, schedule: Q01DX001 (ip), vehicle: Klucel (hydroxypropylcellulose) (HPC) 88 % of control | dose: 100.0 mg/kg/injection, schedule: Q01DX001 (ip), vehicle: Klucel (hydroxypropylcellulose) (HPC) 93 % of control | dose: 200.0 mg/kg/injection, schedule: Q01DX001 (ip), vehicle: Klucel (hydroxypropylcellulose) (HPC) 88 % of control | dose: 400.0 mg/kg/injection, schedule: Q01DX001 (ip), vehicle: Klucel (hydroxypropylcellulose) (HPC) 97 % of control

OCCC1=CCCCC1
inactive: [5] 97 % of control | [7] 95 % of control | [9] 93 % of control

CCC(/C=C\C(C)C1CCC2C3CC=C4CC(O)CCC4(C)C3CCC12C)C(C)C (centres undefined)
inactive: dose: 75.0 mg/kg/injection, schedule: Q01DX009 (sc), vehicle: steriod suspending solution 94 % of control | [13] 89 % of control | dose: 100.0 mg/kg/injection, schedule: Q04DX003 (sc), vehicle: steriod suspending solution 97 % of control | dose: 150.0 mg/kg/injection, schedule: Q01DX009 (sc), vehicle: steriod suspending solution 98 % of control | dose: 200.0 mg/kg/injection, schedule: Q01DX001 (ip), vehicle: carboxymethylcellulose (CMC) 89 % of control | dose: 200.0 mg/kg/injection, schedule: Q04DX003 (sc), vehicle: steriod suspending solution 100 % of control | dose: 300.0 mg/kg/injection, schedule: Q01DX009 (sc), vehicle: steriod suspending solution 97 % of control | [14] 86 % of control | dose: 400.0 mg/kg/injection, schedule: Q04DX003 (sc), vehicle: steriod suspending solution 95 % of control

O=C(Nc1ccc(CCO)cc1)c1cccc(F)c1
inactive: [15] 96 % of control | [16] 107 % of control | [17] 91 % of control

CC1C2Cc3ccc(O)cc3C1(C)CCN2C/C=C\Cl (centres undefined)
inactive: [4] 94 % of control | [6] 95 % of control | [8] 95 % of control

O=P(O)(Nc1ccccc1)Nc1ccccc1
inactive: dose: 100.0 mg/kg/injection, schedule: Q04DX002 (ip), vehicle: saline with Tween-80 113 % of control | dose: 200.0 mg/kg/injection, schedule: Q04DX002 (ip), vehicle: saline with Tween-80 103 % of control | dose: 400.0 mg/kg/injection, schedule: Q04DX002 (ip), vehicle: saline with Tween-80 113 % of control

ClCCC[S][Pb]([c]1ccccc1)([c]1ccccc1)[c]1ccccc1
inactive: dose: 25.0 mg/kg/injection, schedule: Q04DX002 (sc), vehicle: olive oil, sesame oil, peanut oil 100 % of control | dose: 50.0 mg/kg/injection, schedule: Q04DX002 (sc), vehicle: olive oil, sesame oil, peanut oil 116 % of control

Cc1sc2c(c1-c1ccccc1)C(=O)CCCN2
inactive: [5] 94 % of control | [7] 100 % of control | [9] 100 % of control

C(=N\c1nncs1)/Nc1nncs1
inactive: dose: 40.0 mg/kg/injection, schedule: Q01DX015 (ip), vehicle: carboxymethylcellulose (CMC) 114 % of control and 118 % of control | dose: 50.0 mg/kg/injection, schedule: Q01DX001 (ip), vehicle: carboxymethylcellulose (CMC) 102 % of control | dose: 60.0 mg/kg/injection, schedule: Q01DX015 (ip), vehicle: carboxymethylcellulose (CMC) 94 % of control | dose: 90.0 mg/kg/injection, schedule: Q01DX015 (ip), vehicle: carboxymethylcellulose (CMC) 118 % of control | [13] 98 % of control | dose: 135.0 mg/kg/injection, schedule: Q01DX015 (ip), vehicle: carboxymethylcellulose (CMC) 88 % of control | [14] 124 % of control

COCC/C(COC)=N\N=C(/CCOC)COC
inactive: dose: 50.0 mg/kg/injection, schedule: Q01DX001 (ip), vehicle: saline 97 % of control | [10] 103 % of control | [15] 103 % of control | [11] 106 % of control | [16] 111 % of control | [12] 109 % of control

S=C(Cc1ccccc1)N1CCCCC1
inactive: [15] 108 % of control | [1] 100 % of control | [16] 98 % of control | [2] 101 % of control | [17] 95 % of control
